Format in all cases: cell-based
The target of one test is Human TLR7 (Homo sapiens (Human), UniProt Q9NYK1). As to the kind of experiment: HEK-Blue hTLR7 SEAP reporter gene assay (agonistic activity). The conditions noted are these: HEK-Blue hTLR7 cells, 24 h incubation, SEAP by QUANTI-Blue OD650. An excerpt: (§1) The HEK-Blue™ hTLR7 (catalog No.: hkb-ht1r7) and HEK-Blue™ hTLR8 (catalog No.: hkb-ht1r8) cell lines used in this experiment were purchased from InvivoGen. The two cell lines were constructed by a human embryonic kidney 293 cell line stably co-transfecting hTLR7 or hTLR8 and inducing expression of Secreted Alkaline Phosphatase (SEAP) reporter gene, wherein SEAP reporter gene was regulated by an IFN-β promoter. The promoter was fused with NF-κB and AP-1 binding sites. hTLR7 or hTLR8 agonist can activate NF-κB and AP-1 and induce the expression and secretion of SEAP. The agonistic activity of compound for hTLR7 and hTLR8 receptors was identified by measuring the expression level of SEAP using QUANTI-Blue™ reagent.
(§2) • 1. Compound was diluted in 3-fold gradients (10 concentration points in total) and added to the cell plate in duplicate. 1 μL of DMSO was added to each negative control well. • 2. The cells cultured in a T150 flask were taken out from a CO2 incubator, and the cell culture supernatant was discarded. The resulting cells were washed once with Dulbecco's phosphate buffered saline (DPBS). The flask was added with about 10 mL of the culture medium, and tapped to detach the cells. The resulting cell mass was gently pipetted evenly. The cells were counted and the cell suspension was adjusted to 500,000 cells/mL with the culture medium. Then 100 μL of diluted cells were added to each well (50,000 cells/well) of a 96-well plate containing the compound. • 3. The compound and cells were incubated in an incubator at 37° C., 5% CO2 for 24 h. • 4. Activity assay on the compound: 20 μL of the induced cell supernatant from each well was added to a cell culture plate containing 180 μL of QUANTI-Blue™ reagent, and after incubation at 37° C. for 1 h, the optical density absorbance at 650 nm (OD650) was assayed for each well using a multi-functional microplate reader. • 5. Activity assay on the cells: luciferase signal (RLU) was detected using a multi-functional microplate reader as per the process described in the instructions of ATPlite 1Step. • 6. Data analysis: compound activity: OD650 values were analyzed using GraphPad Prism software and the dose-response curves of the compounds were fitted to calculate EC50 values (half maximal effect concentration) for the compounds.
(A reporter such as luciferase makes a cellular process visible.)

Test [1] deals with human peripheral blood mononuclear cells (hPBMCs). As to the kind of experiment: Cytokine induction (IL-12p40, IFN-γ, TNF-α) in peripheral blood mononuclear cells, flow cytometric bead array. Conditions: PBMC, hPBMC, 24 h incubation, supernatant, CBA. The text has this:
(§3) TLR8 is a receptor for the innate immune system to sense exogenous pathogens, and can recognize exogenous viral single-stranded RNA and cause the release of a series of cytokines such as TNF-α, IL-12, IFN-γ to elicit an antiviral immune response; TLR7 is another receptor for the innate immune system to sense exogenous pathogens and, when activated, produces primarily such antiviral cytokines as IFN-α. In this experiment, a potential compound of TLR8 agonist was used to stimulate human peripheral blood mononuclear cells (hPBMCs), and the levels of TNF-α, IL-12p40, IFN-γ and IFN-α above were measured to reflect the activation of the compound on TLR8 receptor and its selectivity for TLR8/TLR7.
• 1. Fresh blood of healthy volunteers was collected and anticoagulated with an EDTA-K2 anticoagulation tube (catalog No.: BD-8516542); • 2. hPBMC cells in the middle cloud-like layer were separated after Ficoll density gradient centrifugation, and washed twice with RPMI1640 (source: Gibco, catalog No.: 224400-089) containing 10% serum, and the culture medium was resuspended to 10 mL. After the cells were counted with Vi-cell cell counter, the concentration of cell suspension was adjusted to 2×10^6/mL; • 3. The compound was dissolved in DMSO to 100 mM, and diluted to 50 mM and 2 mM with DMSO, which were served as initial concentrations. Then the solutions were each diluted sequentially in a 3-fold gradient (sample at a previous concentration (5 μL)+DMSO (10 μL)) to obtain 8 gradients. The resulting solutions were respectively subjected to 500-fold dilution with the culture medium to prepare the working solutions of the compound; • 4. […] IL-12p40, TNF-α and IFN-γ in the supernatant were detected by flow cytometric bead array (CBA); IFN-α in the cell supernatant was detected by enzyme-linked immuno sorbent assay (ELISA). • 6. Data analysis: compound activity: EC50 values (half maximal effect concentration) were analyzed using a GraphPad Prism software and the dose-response curves of the compound were fitted to calculate EC50 values for the compound.

Test [2] has the same test system. As to the kind of experiment: IFN-α induction in peripheral blood mononuclear cells, ELISA. The conditions noted are these: PBMC, hPBMC, 24 h incubation, supernatant, up to 50 μM.
Description: as §3
• 1. […] After the cells were counted with Vi-cell cell counter, the concentration of cell suspension was adjusted to 2×10^6/mL; • 3. […] IL-12p40, TNF-α and IFN-γ in the supernatant were detected by flow cytometric bead array (CBA); IFN-α in the cell supernatant was detected by enzyme-linked immuno sorbent assay (ELISA). • 6. Data analysis: compound activity: EC50 values (half maximal effect concentration) were analyzed using a GraphPad Prism software and the dose-response curves of the compound were fitted to calculate EC50 values for the compound.
For orientation: In an ELISA, binding on a coated surface is turned into a signal by an enzyme label.

The target of the next test is Human TLR8 (Homo sapiens (Human), UniProt Q9NR97). The test can be described thus: HEK-Blue hTLR8 SEAP reporter gene assay (agonistic activity). Conditions: HEK-Blue hTLR8 cells, 24 h incubation, SEAP by QUANTI-Blue OD650.
Description: as §1, §2

Where only a bound is given, the exact number is not on record here.

Sequence of Human TLR8 (Q9NR97 27-1041): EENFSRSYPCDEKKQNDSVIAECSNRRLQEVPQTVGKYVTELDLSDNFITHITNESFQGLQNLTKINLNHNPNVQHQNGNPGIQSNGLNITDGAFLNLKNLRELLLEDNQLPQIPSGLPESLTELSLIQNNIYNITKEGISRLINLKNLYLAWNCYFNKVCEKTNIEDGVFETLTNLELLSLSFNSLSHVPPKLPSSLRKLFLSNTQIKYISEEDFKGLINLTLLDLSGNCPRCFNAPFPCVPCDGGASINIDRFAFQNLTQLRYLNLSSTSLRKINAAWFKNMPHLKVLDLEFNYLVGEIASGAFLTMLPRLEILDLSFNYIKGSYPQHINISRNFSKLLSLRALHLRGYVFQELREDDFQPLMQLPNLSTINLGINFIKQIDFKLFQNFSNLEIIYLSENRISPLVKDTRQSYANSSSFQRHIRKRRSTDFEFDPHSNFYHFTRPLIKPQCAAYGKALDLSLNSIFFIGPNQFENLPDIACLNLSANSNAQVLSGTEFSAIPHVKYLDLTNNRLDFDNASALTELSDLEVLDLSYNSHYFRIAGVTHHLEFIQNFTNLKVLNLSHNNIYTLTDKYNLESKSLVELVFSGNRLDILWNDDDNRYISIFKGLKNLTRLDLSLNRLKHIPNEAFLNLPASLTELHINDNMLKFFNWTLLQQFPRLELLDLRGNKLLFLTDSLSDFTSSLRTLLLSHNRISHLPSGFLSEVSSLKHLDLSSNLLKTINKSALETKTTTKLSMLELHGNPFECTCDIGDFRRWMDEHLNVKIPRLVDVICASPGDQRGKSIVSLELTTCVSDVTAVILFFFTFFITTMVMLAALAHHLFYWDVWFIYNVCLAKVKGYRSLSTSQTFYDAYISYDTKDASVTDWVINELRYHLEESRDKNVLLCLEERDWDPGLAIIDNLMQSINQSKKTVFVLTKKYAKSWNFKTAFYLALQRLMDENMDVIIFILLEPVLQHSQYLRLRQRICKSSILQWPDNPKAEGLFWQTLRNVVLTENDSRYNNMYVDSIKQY
Sequence of Human TLR7 (Q9NYK1 27-1049): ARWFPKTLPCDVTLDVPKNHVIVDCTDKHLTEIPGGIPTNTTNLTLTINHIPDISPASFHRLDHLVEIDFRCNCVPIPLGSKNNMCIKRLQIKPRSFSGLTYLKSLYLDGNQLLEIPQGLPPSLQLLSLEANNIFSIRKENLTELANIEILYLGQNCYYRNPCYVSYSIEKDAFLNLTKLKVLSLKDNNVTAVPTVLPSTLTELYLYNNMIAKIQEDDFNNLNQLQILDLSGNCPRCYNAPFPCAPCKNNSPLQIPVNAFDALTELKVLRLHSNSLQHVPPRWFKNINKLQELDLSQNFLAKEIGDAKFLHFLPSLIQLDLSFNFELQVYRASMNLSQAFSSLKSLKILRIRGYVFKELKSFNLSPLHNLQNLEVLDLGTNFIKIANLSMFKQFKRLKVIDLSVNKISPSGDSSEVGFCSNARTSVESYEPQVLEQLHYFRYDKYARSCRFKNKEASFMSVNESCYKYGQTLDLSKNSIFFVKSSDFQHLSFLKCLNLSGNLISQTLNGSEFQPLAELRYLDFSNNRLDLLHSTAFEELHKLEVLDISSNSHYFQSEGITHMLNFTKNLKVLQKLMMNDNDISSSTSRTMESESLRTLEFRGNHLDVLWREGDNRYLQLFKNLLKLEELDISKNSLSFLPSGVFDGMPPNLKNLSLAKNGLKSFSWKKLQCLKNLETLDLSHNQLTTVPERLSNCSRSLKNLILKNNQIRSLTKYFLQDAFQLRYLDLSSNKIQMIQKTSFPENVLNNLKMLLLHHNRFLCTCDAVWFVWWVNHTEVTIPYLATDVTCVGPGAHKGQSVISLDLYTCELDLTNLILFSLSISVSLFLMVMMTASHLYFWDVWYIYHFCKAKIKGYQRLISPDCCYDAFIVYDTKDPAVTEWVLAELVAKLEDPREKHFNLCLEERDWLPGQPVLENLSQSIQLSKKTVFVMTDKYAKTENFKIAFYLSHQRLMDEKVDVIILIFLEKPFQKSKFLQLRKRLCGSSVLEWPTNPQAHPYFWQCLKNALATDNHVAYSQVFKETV

`CCCCC(C)(CNC(=O)[C@@H]1CCCN1)Nc1nc(N)nc2cccnc12` (single isomer, unassigned) [Compound 1]: the EC50 on Human TLR7 was over 15 µM; in test [1] (read-out: IFN-γ EC50), 0.015 µM; in test [1] (read-out: IL-12p40 EC50) it was 0.006 µM; in test [1] (read-out: TNF-α EC50) it was 0.03 µM; in test [2], over 50 µM; at Human TLR8, 0.002 µM.

For the compound `CCCCC(C)(CNC(=O)[C@@H]1COCCN1)Nc1nc(N)nc2cccnc12` (single isomer, unassigned) [Compound 4], the EC50 is over 15 µM at Human TLR7 and 0.014 µM on Human TLR8.

Take `CCCCC(C)(CNC(=O)[C@@H]1CC(F)(F)CN1)Nc1nc(N)nc2cccnc12` (single isomer, unassigned) [Compound 5]: the EC50 at Human TLR7 was over 15 µM; at Human TLR8 it was 0.106 µM.

`CCCCC(C)(CNC(=O)[C@@H]1CCCCN1)Nc1nc(N)nc2cccnc12` (single isomer, unassigned) [Compound 6]: the results for the EC50 at Human TLR7 and at Human TLR8 were over 15 µM and 0.018 µM, respectively.

For the compound `CCCCC(C)(CNC(=O)[C@@H]1CCN1)Nc1nc(N)nc2cccnc12` (single isomer, unassigned) [Compound 7], the EC50 on Human TLR7 is over 15 µM; at Human TLR8, 0.015 µM.

For `CCCCC(C)(CNC(=O)[C@@H]1CCCN1)Nc1nc(N)nc2cnccc12` (stereo partly drawn) [Compound 2], the EC50 is over 15 µM at Human TLR7 and 0.006 µM on Human TLR8.

As for `CCCCC(C)(CNC(=O)[C@@H]1CCCN1)Nc1nc(N)nc2ccccc12` (stereo partly drawn) [Compound 3], the results for the half-maximal effective concentration (EC50) on Human TLR7 and on Human TLR8 were over 15 µM and 0.032 µM, respectively.

What is called EC50 is the concentration needed to bring the measured effect to its halfway point.

Source of the values: US12071435B2, “TLR8 agonist” (CHIA TAI TIANQING PHARMACEUTICAL GROUP CO., LTD., priority 2018, dated 2024).
